According to patent publication US20110124674A1, “5/5-OR 5/6-MEMBERED CONDENSED RING CYCLOALKYLAMINE DERIVATIVE” (priority 2008, published 2011):

These compounds were tested against T1, human MCH-1R (Homo sapiens, UniProt Q99705) (assay: MCH binding inhibition test ([125I]MCH binding to membranes of MCH-1R expressing CHO-K1 cells)). Settings: membranes of CHO-K1 cells expressing human MCH-1R; 50 pM [125I]MCH; 25° C., 1 hour; pH 7.4; read-out: IC50 (50% inhibition concentration of test compound to the specific [125I]MCH binding).
T1 construct: expressed in transfected cells; host or cells: CHO-K1 (American Type Culture Collection), vector pEF/myc/cyto
Source text: Pharmacological Test Example: MCH Binding Inhibition Test
A human MCH-1R encoding cDNA sequence [FEBS Letters, Vol. 398, 253 (1996); Biochimica et Biophisica Acta, Vol. 1401, 216 (1998)] was cloned to a plasmid vector pEF/myc/cyto (by Invitrogen Corporation). The obtained expression vector was transfected to host cells CHO-K1 (American Type Culture Collection) using Lipofectamine Plus Reagent (by Life Technology Inc.) to provide MCH-1R expression cells.
Membrane samples prepared from the MCH-1R expression cells were incubated with each test compound and 50 pM of [^125I]MCH (by NEN Co.), in an assay buffer (50 mM Tris buffer comprising 10 mM magnesium chloride, 2 mM ethylenediamine tetraacetate, 0.01% bacitracin and 0.2% bovine serum albumin; pH 7.4) at 25° C. for an hour, followed by filtration through a glass filter GF/C (by Wattman Co.). After washing the glass filter with 50 mM Tris buffer (pH 7.4) comprising 10 mM magnesium chloride, 2 mM ethylenediamine tetraacettic acid and 0.04% Tween-20, the radio activity on the glass filter was measured. The non-specific binding was measured in the presence of 1 μM human MCH, and the 50% inhibition concentration (IC50 value) of each test compound to the specific [^125I]MCH binding was determined.

T1 sequence (Q99705 whole entry): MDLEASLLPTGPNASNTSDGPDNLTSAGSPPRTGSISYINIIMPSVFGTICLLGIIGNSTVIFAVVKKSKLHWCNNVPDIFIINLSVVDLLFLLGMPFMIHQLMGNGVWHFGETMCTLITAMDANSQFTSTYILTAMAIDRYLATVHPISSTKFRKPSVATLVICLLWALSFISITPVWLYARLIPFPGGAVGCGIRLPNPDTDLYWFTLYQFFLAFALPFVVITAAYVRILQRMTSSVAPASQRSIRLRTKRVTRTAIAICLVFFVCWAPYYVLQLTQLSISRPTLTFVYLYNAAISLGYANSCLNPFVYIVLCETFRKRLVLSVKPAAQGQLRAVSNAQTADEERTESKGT

Going from COc1cc(C(=O)NC2CCN(Cc3cc4sccc4n3C)CC2)cc(OC)c1C [Example 2-25, 4-methyl-3,5-bis(methyloxy)-N-{1-[(4-methyl-4H-thieno[3,2-b]pyrrol-5-yl)methyl]-4-piperidinyl]benzamide] to COc1cc(C(=O)NC2CCN(Cc3c(C)n(C)c4ccccc34)CC2)cc(OC)c1C [Example 2-5, N-{1-[(1,2-dimethyl-1H-indol-3-yl)methyl]-4-piperidinyl}-4-methyl-3,5-bis(methyloxy)benzamide], the IC50 rises from 16 nM to 26 nM (1.6-fold).

First: C#CCn1cc(CN2CCC(NC(=O)c3cc(OC)c(C)c(OC)c3)CC2)c2ccccc21 [Example 2-10, 4-methyl-3,5-bis(methyloxy)-N-(1-{[1-(2-propyn-1-yl)-1H-indol-3-yl]methyl}-4-piperidinyl)benzamide]
Second: COc1cc(C(=O)NC2CCN(Cc3cn(C)c4ccccc34)CC2)cc(OC)c1C [Example 2-2, 4-methyl-N-{1-[(1-methyl-1-H-indol-3-yl)methyl]-4-piperidinyl}-3,5-bis(methyloxy)benzamide]
The IC50 of the first is 1.7-fold higher: 22 nM for the first, 13 nM for the second. The second is the more potent here.

COc1cc(C(=O)NC2CCN(Cc3[nH]c4ccccc4c3C)CC2)cc(OC)c1C [Example 2-18, 4-methyl-N-{1-[(3-methyl-1H-indol-2-yl)methyl]-4-piperidinyl}-3,5-bis(methyloxy)benzamide] showed an IC50 of 6.8 nM.
